Source: US10508077B2 (FORMA Therapeutics, Inc., priority 2015, dated 2019)

What was measured:
[1] = target: T1, Recombinant N-terminal GST tag full-length human HDAC8 (Homo sapiens, UniProt Q9BY41); experiment: HDAC8 probe binding assay, time resolved fluorescence (TRF); settings: fluorescein labeled pan-HDAC inhibitor probe, 16 hours incubation, compounds listed under IC50 range headings
T1 construct: Recombinant N-terminal GST tag full-length human HDAC8; purchased SignalChem H90-30G-1000; host or cells: Sf9 insect cells (baculovirus)
T1 sequence (Q9BY41 1-377): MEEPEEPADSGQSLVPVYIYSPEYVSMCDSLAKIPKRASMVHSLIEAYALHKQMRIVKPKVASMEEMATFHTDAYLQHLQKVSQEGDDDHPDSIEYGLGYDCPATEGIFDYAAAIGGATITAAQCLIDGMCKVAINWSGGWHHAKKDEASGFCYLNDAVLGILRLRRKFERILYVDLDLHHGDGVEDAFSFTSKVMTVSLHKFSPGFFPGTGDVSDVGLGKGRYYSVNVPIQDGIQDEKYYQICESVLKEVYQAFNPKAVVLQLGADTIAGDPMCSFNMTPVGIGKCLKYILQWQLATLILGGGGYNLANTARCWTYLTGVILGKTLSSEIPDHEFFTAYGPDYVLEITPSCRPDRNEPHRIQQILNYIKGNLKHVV
Method in brief: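 TR-FRET probe displacement using GST-tagged full-length human HDAC8 (Sf9-expressed, 2.5 nM) with 1.5 nM fluorescein-labelled pan-HDAC inhibitor probe and anti-GST terbium, in HEPES pH 7.5 buffer with GSH, BGG, Triton X-100. Compounds 25 μM–1.3 nM, 10-point; 16 h at room temperature. IC50 from 4-parameter fit of % inhibition versus no-enzyme and DMSO controls.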

[2] = target: T2, Full length human recombinant HDAC8 protein (Homo sapiens, UniProt Q9BY41); experiment: In vitro histone deacetylase assay: enzymatic HDAC8 assay, electrophoretic mobility shift; assay type: biochemical; settings: substrate RHKK(Ac)-NH2, 1 nM enzyme, compounds listed under IC50 range headings
T2 construct: Full length human recombinant HDAC8 protein was expressed in baculoviral system; made in house
T2 sequence (Q9BY41 1-377): T1 sequence (Q9BY41 1-377)
Method in brief: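 Baculovirus-expressed full-length human HDAC8 (1 nM) deacetylated 2 µM fluorescent RHKK(Ac)-NH2 peptide in pH 7.5 HEPES, 1% DMSO, at 25 °C, with 12 compound concentrations at 3× spacing. SDS-quenched; product and substrate resolved by microfluidic electrophoresis, P/(S+P) converted to percent inhibition, and IC50 obtained by 4-parameter fit.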

O=C(/C=C/c1ccccc1N1CCN(Cc2cccnc2)CC1)NO [Example I-179, (E)-N-hydroxy-3-(2-(4-(pyridin-3-ylmethyl)piperazin-1-yl)phenyl)acrylamide]
IC50 [1]: ≤ 1000 nM
IC50 [2]: < 1000 nM

Cn1cncc1CN1CCN(c2ccccc2/C=C/C(=O)NO)CC1 [Example I-180, (E)-N-hydroxy-3-(2-(4-((1-methyl-1H-imidazol-5-yl)methyl)piperazin-1-yl)phenyl)acrylamide]
IC50 [1]: ≤ 1000 nM
IC50 [2]: < 1000 nM

O=C(/C=C/c1ccccc1N1CCN(Cc2ccc(N3CCCC3)nc2)CC1)NO [Example I-182, (E)-N-hydroxy-3-(2-(4-((6-(pyrrolidin-1-yl)pyridin-3-yl)methyl)piperazin-1-yl)phenyl)acrylamide]
IC50 [1]: ≤ 1000 nM
IC50 [2]: < 1000 nM

Cc1cc(CN2CCN(c3ccccc3/C=C/C(=O)NO)CC2)n(C)n1 [Example I-183, (E)-3-(2-(4-((1,3-dimethyl-1H-pyrazol-5-yl)methyl)piperazin-1-yl)phenyl)-N-hydroxyacrylamide]
IC50 [1]: ≤ 1000 nM
IC50 [2]: < 1000 nM

Cc1ncsc1C(=O)N1CCN(c2ccccc2/C=C/C(=O)NO)CC1 [Example I-200, (E)-N-hydroxy-3-(2-(4-(4-methylthiazole-5-carbonyl)piperazin-1-yl)phenyl)acrylamide]
IC50 [1]: ≤ 1000 nM
IC50 [2]: < 1000 nM

O=C(/C=C/c1ccccc1N1CCN(C(=O)c2cnn3c2OCCC3)CC1)NO [Example I-204, (E)-3-(2-(4-(6,7-dihydro-5H-pyrazolo[5,1-b][1,3]oxazine-3-carbonyl)piperazin-1-yl)phenyl)-N-hydroxyacrylamide]
IC50 [1]: ≤ 1000 nM
IC50 [2]: < 1000 nM

O=C(/C=C/c1ccccc1N1CCN(C(=O)c2cn[nH]c2)CC1)NO [Example I-206]
IC50 [1]: ≤ 1000 nM
IC50 [2]: < 1000 nM

O=C(/C=C/c1ccccc1N1CCN(C(=O)c2ccc3[nH]ccc3c2)CC1)NO [Example I-208, (E)-3-(2-(4-(1H-indole-5-carbonyl)piperazin-1-yl)phenyl)-N-hydroxyacrylamide]
IC50 [1]: ≤ 1000 nM
IC50 [2]: < 1000 nM

Cn1ccc(S(=O)(=O)NC2CCN(c3ccccc3/C=C/C(=O)NO)CC2)n1 [Example I-219, (E)-N-hydroxy-3-(2-(4-((1-methyl-1H-pyrazole)-3-sulfonamido)piperidin-1-yl)phenyl)acrylamide]
IC50 [1]: ≤ 1000 nM
IC50 [2]: < 1000 nM

Cn1ccnc1S(=O)(=O)N1CCN(c2ccccc2/C=C/C(=O)NO)CC1 [Example I-252, (E)-N-hydroxy-3-(2-(4-((1-methyl-1H-imidazol-2-yl)sulfonyl)piperazin-1-yl)phenyl)acrylamide]
IC50 [1]: ≤ 1000 nM
IC50 [2]: < 1000 nM

O=C(/C=C/c1ccccc1N1CCC(c2ccccc2)C1=O)NO (stereo not shown) [Example I-262, (E)-N-hydroxy-3-(2-(2-oxo-3-phenylpyrrolidin-1-yl)phenyl)acrylamide]
IC50 [1]: ≤ 1000 nM
IC50 [2]: < 1000 nM

CC(C)(C)OC(=O)N1CCN(c2ccccc2/C=C/C(=O)NO)C(=O)C1 [Example I-263, tert-butyl (E)-4-(2-(3-(hydroxyamino)-3-oxoprop-1-en-1-yl)phenyl)-3-oxopiperazine-1-carboxylate]
IC50 [1]: ≤ 1000 nM
IC50 [2]: < 1000 nM

Cc1oc(C(C)(C)C)cc1C(=O)Nc1ccccc1/C=C/C(=O)NO [Example I-265, (E)-5-(tert-butyl)-N-(2-(3-(hydroxyamino)-3-oxoprop-1-en-1-yl)phenyl)-2-methylfuran-3-carboxamide]
IC50 [1]: ≤ 1000 nM
IC50 [2]: < 1000 nM

O=C(/C=C/c1ccccc1NC(=O)c1cnn(-c2ccc(Cl)cc2)c1C(F)(F)F)NO [Example I-266, (E)-1-(4-chlorophenyl)-N-(2-(3-(hydroxyamino)-3-oxoprop-1-en-1-yl)phenyl)-5-(trifluoromethyl)-1H-pyrazole-4-carboxamide]
IC50 [1]: ≤ 1000 nM
IC50 [2]: < 1000 nM

O=C(/C=C/c1ccccc1NC(=O)c1ccccc1Oc1ccc(Cl)cc1)NO [Example I-268, (E)-2-(4-chlorophenoxy)-N-(2-(3-(hydroxyamino)-3-oxoprop-1-en-1-yl)phenyl)benzamide]
IC50 [1]: ≤ 1000 nM
IC50 [2]: < 1000 nM

CCCn1c(C(=O)Nc2ccccc2/C=C/C(=O)NO)cc2ccccc21 [Example I-270, (E)-N-(2-(3-(hydroxyamino)-3-oxoprop-1-en-1-yl)phenyl)-1-propyl-1H-indole-2-carboxamide]
IC50 [1]: ≤ 1000 nM
IC50 [2]: < 1000 nM

CCn1nc(C)cc1C(=O)Nc1ccccc1/C=C/C(=O)NO [Example I-274, (E)-1-ethyl-N-(2-(3-(hydroxyamino)-3-oxoprop-1-en-1-yl)phenyl)-3-methyl-1H-pyrazole-5-carboxamide]
IC50 [1]: ≤ 1000 nM
IC50 [2]: < 1000 nM

Cc1onc(-c2c(Cl)cccc2Cl)c1C(=O)Nc1ccccc1/C=C/C(=O)NO [Example I-275, (E)-3-(2,6-dichlorophenyl)-N-(2-(3-(hydroxyamino)-3-oxoprop-1-en-1-yl)phenyl)-5-methylisoxazole-4-carboxamide]
IC50 [1]: ≤ 1000 nM
IC50 [2]: < 1000 nM

CCC(Oc1ccccc1)C(=O)Nc1ccccc1/C=C/C(=O)NO (stereo not shown) [Example I-281, (E)-N-(2-(3-(hydroxyamino)-3-oxoprop-1-en-1-yl)phenyl)-2-phenoxybutanamide]
IC50 [1]: ≤ 1000 nM
IC50 [2]: < 1000 nM

O=C(/C=C/c1ccccc1NC(=O)[C@@H]1C[C@H]2CC[C@@H]1O2)NO [Example I-282, (1S,2R,4R)-N-(2-((E)-3-(hydroxyamino)-3-oxoprop-1-en-1-yl)phenyl)-7-oxabicyclo[2.2.1]heptane-2-carboxamide]
IC50 [1]: ≤ 1000 nM
IC50 [2]: < 1000 nM

Cc1cc(C)n(Cc2ccc(C(=O)Nc3ccccc3/C=C/C(=O)NO)cc2)n1 [Example I-288, (E)-4-((3,5-dimethyl-1H-pyrazol-1-yl)methyl)-N-(2-(3-(hydroxyamino)-3-oxoprop-1-en-1-yl)phenyl)benzamide]
IC50 [1]: ≤ 1000 nM
IC50 [2]: < 1000 nM

COc1ccc(CN2CCN(c3ccccc3/C=C/C(=O)NO)C(=O)C2)cc1 [Example I-293, (E)-N-hydroxy-3-(2-(4-(4-methoxybenzyl)-2-oxopiperazin-1-yl)phenyl)acrylamide]
IC50 [1]: ≤ 1000 nM
IC50 [2]: < 1000 nM

Cc1cc(C(=O)N2CCN(c3ccccc3/C=C/C(=O)NO)CC2)n(C)n1 [Example I-298, (E)-3-(2-(4-(1,3-dimethyl-1H-pyrazole-5-carbonyl)piperazin-1-yl)phenyl)-N-hydroxyacrylamide]
IC50 [1]: ≤ 1000 nM
IC50 [2]: < 1000 nM

O=C(/C=C/c1ccccc1NC(=O)c1ccccc1Oc1ccc(C(F)(F)F)cc1)NO [Example I-303, (E)-N-(2-(3-(hydroxyamino)-3-oxoprop-1-en-1-yl)phenyl)-2-(4-(trifluoromethyl)phenoxy)benzamide]
IC50 [1]: ≤ 1000 nM
IC50 [2]: < 1000 nM

COc1ccccc1Oc1ccccc1C(=O)Nc1ccccc1/C=C/C(=O)NO [Example I-304, (E)-N-(2-(3-(hydroxyamino)-3-oxoprop-1-en-1-yl)phenyl)-2-(2-methoxyphenoxy)benzamide]
IC50 [1]: ≤ 1000 nM
IC50 [2]: < 1000 nM

O=C(/C=C/c1ccccc1NC(=O)c1ccccc1Oc1ccc(F)cc1)NO [Example I-306, (E)-2-(4-fluorophenoxy)-N-(2-(3-(hydroxyamino)-3-oxoprop-1-en-1-yl)phenyl)benzamide]
IC50 [1]: ≤ 1000 nM
IC50 [2]: < 1000 nM

CC(=O)NC1CCN(c2ccccc2/C=C/C(=O)NO)C1 (stereo not shown) [Example I-307, (E)-3-(2-(3-acetamidopyrrolidin-1-yl)phenyl)-N-hydroxyacrylamide]
IC50 [1]: ≤ 1000 nM
IC50 [2]: < 1000 nM

O=C(/C=C/c1ccccc1N1CC(c2ccccc2)CC1=O)NO (stereo not shown) [Example I-309, (E)-N-hydroxy-3-(2-(2-oxo-4-phenylpyrrolidin-1-yl)phenyl)acrylamide]
IC50 [1]: ≤ 1000 nM
IC50 [2]: < 1000 nM

CC(C)(C)OC(=O)N1CCC2(CC1)CCN(c1ccccc1/C=C/C(=O)NO)C2=O [Example I-310, tert-butyl (E)-2-(2-(3-(hydroxyamino)-3-oxoprop-1-en-1-yl)phenyl)-1-oxo-2,8-diazaspiro[4.5]decane-8-carboxylate]
IC50 [1]: ≤ 1000 nM
IC50 [2]: < 1000 nM

O=C(/C=C/c1ccccc1NC(=O)c1cnc(-c2ccccc2F)s1)NO [Example I-311, (E)-2-(2-fluorophenyl)-N-(2-(3-(hydroxyamino)-3-oxoprop-1-en-1-yl)phenyl)thiazole-5-carboxamide]
IC50 [1]: ≤ 1000 nM
IC50 [2]: < 1000 nM

O=C(/C=C/c1ccccc1NC(=O)c1cnc(-c2ccccn2)s1)NO [Example I-312, (E)-N-(2-(3-(hydroxyamino)-3-oxoprop-1-en-1-yl)phenyl)-2-(pyridin-2-yl)thiazole-5-carboxamide]
IC50 [1]: ≤ 1000 nM
IC50 [2]: < 1000 nM

O=C(/C=C/c1ccccc1NC(=O)c1ccncc1N1CCOCC1)NO [Example I-313, (E)-N-(2-(3-(hydroxyamino)-3-oxoprop-1-en-1-yl)phenyl)-3-morpholinoisonicotinamide]
IC50 [1]: ≤ 1000 nM
IC50 [2]: < 1000 nM
